Consider one molecule from publication PMC9320910, “Inhibition of Microtubule Affinity Regulating Kinase 4 by Metformin: Exploring the Neuroprotective Potential of Antidiabetic Drug through Spectroscopic and Computational Approaches” (Molecules, 2022).

Structures are written as SMILES.

For the test, the target named is T1, Microtubule affinity regulating kinase 4 (MARK4) (Homo sapiens, UniProt Q96L34).
T1 sequence (Q96L34 1-752): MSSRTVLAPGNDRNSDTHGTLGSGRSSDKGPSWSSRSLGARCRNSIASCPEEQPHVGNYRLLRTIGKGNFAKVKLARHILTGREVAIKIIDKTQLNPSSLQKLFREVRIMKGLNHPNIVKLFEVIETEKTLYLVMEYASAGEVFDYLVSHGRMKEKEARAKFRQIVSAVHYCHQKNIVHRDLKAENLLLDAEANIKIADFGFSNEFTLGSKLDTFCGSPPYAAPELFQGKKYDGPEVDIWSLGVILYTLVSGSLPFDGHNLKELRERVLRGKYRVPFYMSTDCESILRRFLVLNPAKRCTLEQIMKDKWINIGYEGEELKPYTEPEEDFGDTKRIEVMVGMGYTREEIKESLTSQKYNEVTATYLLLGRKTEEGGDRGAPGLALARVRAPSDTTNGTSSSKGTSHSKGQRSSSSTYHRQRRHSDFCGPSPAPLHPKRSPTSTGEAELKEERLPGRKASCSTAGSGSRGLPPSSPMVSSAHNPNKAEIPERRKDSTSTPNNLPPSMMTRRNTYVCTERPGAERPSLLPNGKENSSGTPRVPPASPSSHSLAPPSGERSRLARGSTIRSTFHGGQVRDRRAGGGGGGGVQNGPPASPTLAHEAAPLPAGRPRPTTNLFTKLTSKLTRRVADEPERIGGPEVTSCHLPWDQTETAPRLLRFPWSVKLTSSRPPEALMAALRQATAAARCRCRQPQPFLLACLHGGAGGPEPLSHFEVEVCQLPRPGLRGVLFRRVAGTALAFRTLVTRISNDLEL
Briefly: intrinsic fluorescence quenching (modified Stern-Volmer); supported by malachite green ATPase assay of MARK4 (IC50 =[…]). The format is binding.

By Kd is commonly meant the concentration at which binding is half-saturated. Higher therefore signals weaker binding.

The molecule `CN(C)C(=N)N=C(N)N` [Mtf, N,N-dimethylbiguanide] showed an equilibrium dissociation constant (Kd) of 1.67 µM.
